Common to all, as to format: cell-based
For test [1], the system named is Escherichia coli (E. coli). The test can be described thus: Residual self-sanitizing activity on hard, non-porous glass surface per EPA Protocol 01-1A (manual wear cycles). The note with it: in CGB-D-100 disinfectant; lowest concentration tested. From the text:
The purpose of this study is to test residual self-sanitizing activity of CGB-D-100 disinfectant per EPA protocol 01-1A, “Residual Self-Sanitizing Activity of Dried Chemical Residues on Hard, Non-Porous Surfaces.”
The scope of this study is to evaluate residual self-sanitizing activity of CGB-D-100 disinfectant with three different concentrations of CG-101, and to compare it to a marketed disinfectant (Microban® 24). Glass surface (microscope slides) will be used as a non-porous surface. Sterile saline solution will be used as a negative control and Microban® 24 will be used as the positive control. The method will simulate contact and touches by incorporating wear or wiping of the test surface as well as reinoculations of the test and control surfaces over 24 hours. The EPA protocol requires the use of an automated abrasion tester to simulate wear from wiping the surface. For the purposes of this protocol, abrasion or wear were be performed manually using cotton wipes.
First, the glass slides will be washed with a non-medical soap and water followed by cleaning with 70% alcohol and allowed to air dry. […]
Test product, negative control, and positive control will be applied to replicate test surfaces according to the product's Directions for Use or until surface is completely wet. […] The temperature and humidity in the lab will be recorded. […]

Test [2] is described as follows: Antimicrobial efficacy time kill test (ASTM E2783-11, neutralization per E1054-08). As for the experimental part:
The purpose of this study was to test antimicrobial efficacy of 1%, 3%, and 5% CG-101 disinfectant formulations.
The study was performed using the following standard protocols: • I. American Society for Testing and Materials. Standard Test Methods for Evaluation of
Inactivators of Antimicrobial Agents; Designation: E1054-08 (Reapproved 2013). West Conshohocken, PA. • II. American Society for Testing and Materials. Standard Test Method for Assessment of Antimicrobial Activity for Water Miscible Compounds Using a Time-Kill Procedure. Designation: E2783-11 (Reapproved 2016). West Conshohocken, PA.
Initial neutralization testing confirmed that the test material was adequately neutralized at all concentrations tested. The time kill procedure included triplicate testing and all plate counts were performed in duplicate
CG-101 was added to water to form mixtures of 1 wt %, 3 wt %, and 5 wt % of CG-101.

Another test deals with E. coli. Kind of test: Self-sanitizing activity of CG-101 in water and aqueous Poloxamer 407 on a surface with dried inoculum, 5 min contact. As for the experimental part:
This study was conducted to test the residual self-sanitizing activity of samples containing 5% CG-101 in water, in 5% aqueous […], and in 10% aqueous Poloxamer 407. Parameters of the experiments are listed below:
• Water (Negative Control) • 5% CG-101 Aqueous Solution (Positive Control) • 5% CG-101 in 5% Poloxamer 407 Aqueous Solution • 5% CG-101 in 10% Poloxamer 407 Aqueous solution
• 10 μl of E. coli suspension was applied on the surface and dried over 30 min • 1 ml of each test sample and control was applied on the surface with a dry inoculum • Contact time of 5 min was used • Neutralization was performed immediately after the contact time • 100 μl from each solution was plated onto agar plates and transferred to incubator set at 37 C for 48 hr. • Bacterial growth was observed after 48 hr. In the incubator.

Where [3] appears, read: 1 wt % CG-101 in water, 1 minute.
[4] abbreviates: 1 wt % CG-101 in water, 5 minutes.
The mark [5] stands for this setting: 1 wt % CG-101 in water, at seconds.
Where [6] appears, read: 3 wt % CG-101 in water, 1 minute.
The mark [7] stands for this setting: 3 wt % CG-101 in water, 5 minutes.
The mark [8] stands for this setting: 3 wt % CG-101 in water, at seconds.
[9] abbreviates: 5 wt % CG-101 in water, 1 minute.
Where [10] appears, read: 5 wt % CG-101 in water, 5 minutes.
The mark [11] stands for this setting: 5 wt % CG-101 in water, at seconds.

Turning to Choline geranate [CG-101], the “concentration of CG-101 sufficient to kill all applied bacteria and to preserve the glass surface for 24 h” value in test [1] is listed as 2%. The killing in test [2] (setting [3]), in test [2] (setting [4]), in test [2] (setting [5]), in test [2] (setting [6]), in test [2] (setting [7]) and in test [2] (setting [8]) was 99.9% throughout. In addition, the killing in test [2] (setting [9]), in test [2] (setting [10]) and in test [2] (setting [11]) was 99.9% in each case. Moreover, the “log decrease in CFU” value in test [2] (setting [3]), in test [2] (setting [4]), in test [2] (setting [5]), in test [2] (setting [6]), in test [2] (setting [7]) and in test [2] (setting [8]) was more than 3 log throughout. Also, the “log decrease in CFU” value in test [2] (setting [9]), in test [2] (setting [10]) and in test [2] (setting [11]) was more than 3 log in each case. Besides, the “bacterial growth on TSA plates” value in the test with E. coli (5% CG-101 in 5% aqueous Poloxamer 407, 48 hr incubation) is recorded as “No bacterial growth”; in the test on E. coli (5% CG-101 in 10% aqueous Poloxamer 407, 48 hr incubation), “No bacterial growth”; with E. coli (5% CG-101 in water (positive control of this study), 48 hr incubation), “No bacterial growth”.

Values taken from patent publication US20230413812A1, “SANITIZING COMPOSITIONS CONTAINING IONIC LIQUID” (CAGE BIO, INC., priority 2020, published 2023).
